Assay results taken from US5340815A, “2-substituted-4,6-di-tertiary-butyl-5-hydroxy-1,3-pyrimidines useful as antiinflammatory agents” (Warner-Lambert Company, priority 1993, dated 1994).

Key:
[1] = test system: Cyclooxygenase; assay: ARBC whole cell cyclooxygenase assay (PGF2α formation, RBL-1 cells); format: cell-based, rat; settings: 10 μM
Method: (§1) ARBL/ARBC Whole Cell 5-Lipoxygenase and Cyclooxygenase Assays The rat basophilic leukemia cell line (RBL-1) was obtained from the American Type Culture Collection (Rockville, Md.). Radioimmunoassay (RIA) kits of LTB4 and PGF2α were obtained from Amersham (Arlington Heights, Ill.) and Seragen (Boston, Mass.), respectively. All tissue culture media were obtained from GIBCO (Grand Island, N.Y.). RBL-1 cells are grown in suspension culture in Eagle's minimum essential medium supplemented with 12% fetal bovine serum at 37° C. in an incubator supplied with air-5% carbon dioxide. Cells are harvested by centrifugation. They are washed with cold phosphate buffered saline pH 7.4 (PBS; NaCl, 7.1 g; Na2 HPO4, 1.15 g; KH2 PO4, 0.2 g; and KCl, 0.2 g/l). Cells are finally suspended in PBS containing 1.0 mM calcium at a density of 2×10^6 cells/mi. Cells are incubated with and without test agent (in DMSO) (1% DMSO is without effect on arachidonic acid metabolism) for ten minutes at room temperature. Calcium ionophore A23187 (5 μM) is added and cells are incubated for 7 minutes at 37° C. The reaction is stopped by chilling the tubes on ice for 10 minutes. Cells are separated by centrifugation and the supernatant is stored at -20° Aliquots (100 μL) are analyzed for LTB4 and PGF2α using radioimmunoassay kits as provided by the supplier. […]

[2] = test system: Carrageenan-Induced Rat Foot Paw Edema; assay: Carrageenan-induced rat foot paw edema-2 (CFE-2) assay; format: in vivo; settings: 30 mg/kg, methanesulfonate salt, dosed one hour before carrageenan; edema at five hours
Method: Carrageenan-Induced Rat Foot Paw Edema-2 (CFE-2) Assay: Protocol
Carrageenan solution (1% w/v) is prepared by dissolving 100 mg carrageenan (Marine Colloidal Div., Springfield, N.J.) in 10 mL of sterile saline (0.9%) solution (Travenol). The solution is vortexed for 30 to 45 minutes. Animals are dosed with compound one hour before carrageenan challenge. Foot paw edema is induced by injecting 0.10 ml of the 1% carrageenan subcutaneously into the plantar portion of the right hind paw of each rat under light anesthesia. Initial foot paw volume is measured immediately following carrageenan challenge using mercury plethysmography (Buxco Electronics). Edema is measured five hours after carrageenan. The difference between the five-hour and the initial paw volume is expressed as delta edema. The delta edema for each test group of animals is used to calculate the percent inhibition of edema achieved by-the compound at the test dose compared with the vehicle control group. The ID40 (the dose at which swelling is inhibited by 40%) is calculated by probit analysis for the dose at which 40 percent inhibition occurs.

[3] = test system: 5-Lipoxygenase; assay: ARBL whole cell 5-lipoxygenase assay (LTB4 formation, RBL-1 cells); format: cell-based, rat; settings: 10 μM
Method: as §1

Structure (SMILES) | ARBC, % inhibition (PGF2α formation) [1] [%] | % Inhibition of Edema [2] [%] | ARBL, % inhibition (LTB4 formation) [3] [%] | ARBL, inhibition class (LTB4 formation) [3]
CC(C)(C)c1nc(/C=C/c2cccnc2)nc(C(C)(C)C)c1O [Example 1, [E]-4,6-Bis(1,1-dimethylethyl)-2-[[2-(3-pyridinyl)]-ethenyl]-5-pyrimidinol] | 85 | 45 | 100 | 
Cc1cc(C=Cc2nc(C(C)(C)C)c(O)c(C(C)(C)C)n2)sn1 [Example 3] | 60 |  |  | N* (<40% inhibition at 10 μM)
